Our source for the TGI values is PubChem BioAssay (NCI).

Some test systems named below: DMS 114 small cell lung; HCT-15 colon; LOX IMVI melanoma; LXFL 529 NSCLC; M19-MEL melanoma; NCI-H23 lung; OVCAR-3 ovarian; SNB-78 CNS; SW-620 colon; BT-549 breast; MCF7 breast.
Holding throughout (assay): NCI-60 cell line screen, 48 h

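Five compound concentrations were applied to cells in 96-well plates for 48 hours; endpoints were derived by simple linear interpolation of the resulting dose-response curve. TGI denotes the concentration required for complete inhibition of growth.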 Some results are limits rather than exact numbers.

As for `FC(F)(F)C1(Br)C(c2ccccc2)=C1c1ccccc1`, the TGI in the assay on DMS 114 small cell lung came out at 31.4 µM; in the assay on HCT-15 colon, 28 µM; in the assay on LOX IMVI melanoma, 28 µM; with LXFL 529 NSCLC, 28.1 µM; in the assay with M19-MEL melanoma it was 30 µM; with NCI-H23 lung, 32.7 µM. For the same molecule, the TGI in the assay with OVCAR-3 ovarian amounted to 29.6 µM; in the assay with SNB-78 CNS, 96.6 µM; in the assay on SW-620 colon it was 33.5 µM.

Take `COC(=O)C(Cc1nc2ccccc2[nH]c1=O)C(=O)C(=O)Nc1ccc([N+](=O)[O-])cc1[N+](=O)[O-]` (stereo not given): the TGI turned out to be 35 µM with DMS 114 small cell lung; 34.5 µM in the assay with HCT-15 colon; 44.4 µM in the assay on LOX IMVI melanoma; 25.5 µM in the assay with LXFL 529 NSCLC; 33.9 µM in the assay with M19-MEL melanoma; 35.9 µM with NCI-H23 lung. The TGI in the assay with OVCAR-3 ovarian was 30.5 µM; with SNB-78 CNS, over 100 µM; in the assay with SW-620 colon, 39.6 µM.

As to `O=[N+]([O-])CCc1cccc([N+](=O)[O-])c1`, the TGI with DMS 114 small cell lung, in the assay on HCT-15 colon, with LOX IMVI melanoma, in the assay with LXFL 529 NSCLC, in the assay with M19-MEL melanoma and in the assay with NCI-H23 lung was over 100 µM throughout. For the same molecule, the values for the TGI with OVCAR-3 ovarian, with SNB-78 CNS and in the assay on SW-620 colon were over 100 µM, over 100 µM and 22.7 µM, respectively.

As to `C[N+](C)(C)CC(=O)N/N=C(\C(=O)NC1=C(Cl)C(=O)c2ccccc2C1=O)C(C#N)c1csc(-c2ccc([N+](=O)[O-])cc2)n1` (stereo not given), the TGI in the assay on DMS 114 small cell lung, in the assay with HCT-15 colon, with LOX IMVI melanoma, in the assay on LXFL 529 NSCLC, in the assay on M19-MEL melanoma and in the assay with NCI-H23 lung was over 100 µM in each case. Moreover, the TGI in the assay with OVCAR-3 ovarian, with SNB-78 CNS and in the assay with SW-620 colon was over 100 µM in each case.

With `CCOc1cccc2ccc[n+](CC)c12`, the TGI in the assay on DMS 114 small cell lung, in the assay with LOX IMVI melanoma, with LXFL 529 NSCLC, in the assay on M19-MEL melanoma, in the assay on NCI-H23 lung and in the assay with OVCAR-3 ovarian was over 100 µM in each case. In the assay on SW-620 colon, this molecule showed a TGI of over 100 µM.

Regarding `Cc1cc(Cl)ccc1NC(=O)C(=O)C(C(=O)c1ccc2ccccc2c1)C1OC(=O)c2ccccc21` (stereo not given), the TGI with DMS 114 small cell lung stood at 23.7 µM; in the assay with HCT-15 colon, 50.9 µM; with LOX IMVI melanoma, 32.2 µM; with LXFL 529 NSCLC, 19 µM; with M19-MEL melanoma, 29.7 µM; in the assay on NCI-H23 lung, 26.3 µM. The TGI was found to be 33.3 µM with OVCAR-3 ovarian, 49.9 µM in the assay with SNB-78 CNS and 84.6 µM with SW-620 colon.

`COC(C(=O)NCCCCNC(=O)C(OC)c1ccccc1)c1ccccc1` (stereo not given): the TGI with DMS 114 small cell lung, in the assay with HCT-15 colon, in the assay with LOX IMVI melanoma, in the assay with LXFL 529 NSCLC, in the assay with M19-MEL melanoma and in the assay on NCI-H23 lung was over 100 µM in each case. Moreover, the TGI in the assay on OVCAR-3 ovarian, in the assay on SNB-78 CNS and in the assay with SW-620 colon was over 100 µM each time.

For `O=C(Nc1cccc(O)c1)C(=O)C(C(=O)c1ccc(Cl)c(Cl)c1)C1OC(=O)c2ccccc21` (stereo not given), the TGI in the assay with DMS 114 small cell lung is 33.3 µM; with HCT-15 colon, 35 µM; in the assay with LOX IMVI melanoma it was 33.8 µM; with LXFL 529 NSCLC, 24.6 µM; in the assay on M19-MEL melanoma, 27.1 µM; with NCI-H23 lung, 32.6 µM. The TGI is over 100 µM in the assay with SNB-78 CNS and 29 µM in the assay on SW-620 colon.

As for `O=C1OC(O)C(Oc2c(Cl)cccc2Cl)=C1Cl` (stereo not given), the TGI stood at 29 µM in the assay with HCT-15 colon; 34 µM with LOX IMVI melanoma; 33.6 µM in the assay with LXFL 529 NSCLC; 38.9 µM with NCI-H23 lung; 31 µM with OVCAR-3 ovarian; 94.6 µM in the assay with SNB-78 CNS. The molecule also displayed a TGI in the assay on SW-620 colon of 28.3 µM.

With `CCOC(=N)CC(=O)c1ccccc1`, the TGI with DMS 114 small cell lung, in the assay on LOX IMVI melanoma, in the assay with LXFL 529 NSCLC, in the assay on M19-MEL melanoma, in the assay on NCI-H23 lung and with OVCAR-3 ovarian was over 100 µM in each case. The TGI in the assay on SNB-78 CNS and with SW-620 colon was over 100 µM throughout.

Regarding `CC(C)(C)C(=O)OCC1CCC(n2cnc3c(=O)[nH]c(N)nc32)O1` (stereo not given), the TGI with DMS 114 small cell lung, with HCT-15 colon, in the assay with LOX IMVI melanoma, in the assay on M19-MEL melanoma, in the assay with NCI-H23 lung and in the assay on OVCAR-3 ovarian was over 100 µM each time. The TGI in the assay on SNB-78 CNS and with SW-620 colon was over 100 µM in each case.

`CC(C)(C)C1CCC2c3c([nH]c4ccccc34)C3C(=O)N(c4ccccc4)C(=O)C3C2C1` (stereo not given): the TGI with DMS 114 small cell lung was 20.7 µM; in the assay with HCT-15 colon it was over 100 µM; with LOX IMVI melanoma, 15.3 µM; with LXFL 529 NSCLC, 32.3 µM; in the assay with M19-MEL melanoma it was 23.7 µM; in the assay on NCI-H23 lung, 40.1 µM. For the same molecule, the values for the TGI in the assay with OVCAR-3 ovarian, in the assay with SNB-78 CNS and with SW-620 colon were 19.1 µM, 19 µM and 41 µM, respectively.

Regarding `Cc1cc(N(CCC#N)S(C)(=O)=O)ccc1C=Nc1ccc(C(=O)NN2C(=O)/C(=C/c3ccc(N(CCC#N)CCC#N)cc3C)N=C2c2cc([N+](=O)[O-])ccc2Cl)cc1`, the TGI with DMS 114 small cell lung, in the assay on HCT-15 colon, in the assay on LOX IMVI melanoma, in the assay with LXFL 529 NSCLC, in the assay with M19-MEL melanoma and in the assay with NCI-H23 lung was over 100 µM each time. Also, the TGI with OVCAR-3 ovarian, in the assay on SNB-78 CNS and with SW-620 colon was over 100 µM throughout.

Consider `C=C[C@@]1(O)CCCC2=C(C(=O)OCC)CC[C@]21C`, for which the TGI in the assay on DMS 114 small cell lung, in the assay with HCT-15 colon, with LXFL 529 NSCLC, in the assay with M19-MEL melanoma, in the assay on NCI-H23 lung and in the assay on OVCAR-3 ovarian was over 100 µM in each case. In the assay with SW-620 colon, this molecule had a TGI of over 100 µM.

For `CCc1cccc(CC)c1NC(=O)C1=C(C)NC(C)=C(C(=O)Nc2c(CC)cccc2CC)C1c1ccc([N+](=O)[O-])cc1`, the TGI is 52.4 µM in the assay with DMS 114 small cell lung; over 100 µM in the assay with LOX IMVI melanoma; 33.1 µM in the assay on LXFL 529 NSCLC; 69.2 µM in the assay on M19-MEL melanoma; over 100 µM in the assay with NCI-H23 lung; 96 µM in the assay with OVCAR-3 ovarian. This molecule yielded a TGI in the assay on SW-620 colon of 59.1 µM.

Consider `CCOC(=N)/C(=C1\OC(N)=C(c2ccc(Cl)cc2)C1=O)c1ccc(Cl)cc1`, for which the TGI is 40.6 µM in the assay with DMS 114 small cell lung; 28.1 µM in the assay with LOX IMVI melanoma; 27.8 µM with LXFL 529 NSCLC; 34.7 µM in the assay with M19-MEL melanoma; 28.6 µM in the assay with NCI-H23 lung; 32.8 µM in the assay with OVCAR-3 ovarian. Further, the values for the TGI in the assay on SNB-78 CNS and in the assay with SW-620 colon were over 100 µM and 32.1 µM, respectively.

On to `CC/C(CC(=O)CCC(=O)Nc1ccccc1[N+](=O)[O-])=N/NC(=O)C[n+]1ccccc1`, for which the TGI with HCT-15 colon, with LOX IMVI melanoma, with LXFL 529 NSCLC, in the assay on M19-MEL melanoma, in the assay with NCI-H23 lung and in the assay on OVCAR-3 ovarian was over 100 µM each time. Moreover, the TGI with SNB-78 CNS and in the assay with SW-620 colon was over 100 µM throughout.

As for `C/C=C/CC(C)[C@@H](O)[C@H](NC)C(=O)O` (stereo not given in full), the TGI in the assay on DMS 114 small cell lung, in the assay with HCT-15 colon, in the assay on LOX IMVI melanoma, in the assay with LXFL 529 NSCLC, with M19-MEL melanoma and in the assay with NCI-H23 lung was over 100 µM throughout. Moreover, the TGI in the assay with OVCAR-3 ovarian and in the assay on SW-620 colon was over 100 µM each time.

As to `CC1=NN(C(=O)c2ccc([N+](=O)[O-])cc2)C(=O)C1N=Nc1ccccc1C(=O)O` (stereo not given), the TGI in the assay on DMS 114 small cell lung, in the assay with LXFL 529 NSCLC, in the assay with M19-MEL melanoma, in the assay with NCI-H23 lung, in the assay with OVCAR-3 ovarian and in the assay on SNB-78 CNS was over 100 µM in each case. This molecule also yielded a TGI with SW-620 colon of over 100 µM.

`O=[N+]([O-])C1Cc2ccccc2OC1c1ccccc1` (stereo not given): the TGI in the assay on LOX IMVI melanoma is 31.9 µM; in the assay on LXFL 529 NSCLC it was over 100 µM; in the assay with M19-MEL melanoma, over 100 µM; in the assay on NCI-H23 lung it was over 100 µM; in the assay on OVCAR-3 ovarian it was over 100 µM; in the assay on SNB-78 CNS it was 51.5 µM. In the assay on SW-620 colon, this molecule registered a TGI of over 100 µM.

Turning to `CCc1cc(CCC(=O)Nc2c(C)cccc2C)[nH]n1`, the TGI with HCT-15 colon, in the assay on LXFL 529 NSCLC, in the assay with M19-MEL melanoma, in the assay on NCI-H23 lung, in the assay with OVCAR-3 ovarian and in the assay on SNB-78 CNS was over 100 µM in each case. This molecule yielded a TGI in the assay with SW-620 colon of over 100 µM.

As for `Nc1ccn(C2OC(COC(=O)C34CC5CC(CC(C5)C3)C4)C(O)C2O)c(=O)n1` (stereo not given), the TGI in the assay on BT-549 breast, in the assay on DMS 114 small cell lung, in the assay on HCT-15 colon, in the assay with LOX IMVI melanoma, with M19-MEL melanoma and in the assay with MCF7 breast was over 100 µM in each case. The TGI with NCI-H23 lung, with OVCAR-3 ovarian, in the assay with SNB-78 CNS and with SW-620 colon was over 100 µM in each case.

For `O=c1[nH]c2cc(Cl)ccc2nc1/C(=N\O)C(O)c1ccc([N+](=O)[O-])cc1` (stereo not given), the TGI with DMS 114 small cell lung, in the assay with HCT-15 colon, in the assay on LOX IMVI melanoma, with LXFL 529 NSCLC, in the assay on M19-MEL melanoma and with SW-620 colon was over 100 µM throughout.
